One experiment has as its target PDGFRα (Homo sapiens (Human), UniProt P16234). The experiment can be described thus: Inhibition of PDGFRα kinase activity (HTRF KinEASE-TK). Conditions: biochemical, HTRF KinEASE-TK. The procedure, abridged: (§1)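 Phosphorylation of biotinylated TK peptide read by HTRF (665/620 nm ratio) after 120 min at rt, following 1 h enzyme–compound preincubation. ATP (2× mix): 20 μM CSF1R, 16 μM c-Kit, 40 μM PDGFRβ, 1 μM PDGFRα; MgCl2 10 mM except c-Kit 5 mM. 22-point 1:2 titration; four-parameter IC50.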
(In TR-FRET formats the signal depends on donor and acceptor labels being close together.)

The target in another experiment is PDGFRβ (Homo sapiens (Human), UniProt P09619). Briefly: Inhibition of PDGFRβ kinase activity (HTRF KinEASE-TK). The note with it: biochemical, HTRF KinEASE-TK. The procedure, abridged:
as §1

The target in the next experiment is CSF1R (Homo sapiens (Human), UniProt P07333). Briefly: Inhibition of CSF1R kinase activity (HTRF KinEASE-TK). The note with it: biochemical, HTRF KinEASE-TK. The procedure, abridged:
as §1

Experiment [1] deals with Phospho-KIT (Y703) in M07e cells. The experiment can be described thus: Phospho-KIT (Y703) cellular assay in M07e cells. The class given is cell-based. Conditions: M-07e; Phospho-KIT (Y703), M07e cells; read-out: M07e Cell IC50. The method, then:
Phospho-KIT (Y703) Cellular Assay in M07e Cells
The day prior to assay, M07e cells (DSMZ, catalog #ACC 104) were serum starved. Cells were centrifuged and cell pellet resuspended in OptiMEM (Gibco, catalog #31985062) to a density of 1×10^6-2.5×10^6 cells per mL. Cells were then incubated overnight at 5% CO2 and 37° C. in an appropriately sized flask. On the day of the experiment, an 11 point, half log titration of test compound was pre-dispensed into 96-well round bottom polypropylene plates (Corning, catalog #3365). The serum starved M07e cells were centrifuged and resuspended to a cell density of 1×10^6 cells per mL with DPBS (Gibco, catalog #14190-144). Live/Dead Green Fixable viability dye (Invitrogen, catalog #L34970) was added as 1 μL/1 mL of cell suspension. Cells were then incubated in the dark at 4° C. for 30 min. Cells were washed by centrifugation and resuspension with DPBS+0.5% BSA (Gemini Bio Products, catalog #700110/100, 30% BSA solution). Cells were resuspended, separated into two equal volumes and again centrifuged. Cell pellets were resuspended with OptiMEM™ to a cell density of 1×10^6 cells per mL. Cells were then added to the appropriate compound plate at 100,000 cells per well in 100 μL and mixed. Plates were incubated at 5% CO2 and 37° C. for 50 min. Stem Cell Factor, SCF (R&D Systems, #255-SC/CF) was diluted in OptiMEM to 1 μg/mL and added to all wells as 10 μL for a final concentration of 90.9 ng/mL. Plates were incubated at 5% CO2 and 37° C. for 10 min. Incubation was stopped by addition of 110 μL 4% paraformaldehyde solution in PBS (Life Technologies, catalog #J19943.K2). Plates were incubated at rt for at least 15 min. Plates were then centrifuged and supernatant removed by flicking. Cells were washed once by resuspension in 200 μL DPBS+0.5% BSA, centrifuged, and supernatant removed by flicking. Cells were resuspended in 100 μL 1X Permeabilization buffer (Invitrogen, catalog #88882400) and plates incubated at rt for 30 min. Plates were centrifuged, supernatant removed by flicking, and cells resuspended in 50 μL primary antibody, anti-phospho-c-KIT (Tyr703) (Cell Signaling, catalog #3073), diluted to 1 μg/mL with permeabilization buffer. Plates were incubated at rt for 1 h. Plates were centrifuged, supernatant removed, and cells resuspended with 200 μL DPBS+0.5% BSA. Plates were again centrifuged, supernatant removed by flicking, and cells resuspended in 100 μL secondary antibody, goat anti-rabbit AlexaFluor647 (AF647) (Invitrogen, catalog #A21244) diluted to 1 μg/mL with DPBS+0.5% BSA. Plates were incubated at rt for 30 min. followed by centrifugation, supernatant removal, and cell resuspension with 200 μL DPBS+0.5% BSA. Cells were washed again by centrifugation, supernatant removal, and cell resuspension with 200 μL DPBS+0.5% BSA. Samples were then read by flow cytometry. The Forward: Side scatter plot was gated and that population was gated for live cells based on the Live/Dead Green staining. The geometric mean of AF647 of the live cell population was recorded. Percentage maximum activity in each test well was calculated based on DMSO (100% activity) and positive control treated cell wells (0% activity). The potencies (IC50 values) of test compounds were determined using a standard 4-parameter non-linear regression fit.

In another experiment the target is c-Kit (Homo sapiens (Human), UniProt P10721). Briefly: Inhibition of c-Kit kinase activity (HTRF KinEASE-TK). Conditions: biochemical, HTRF KinEASE-TK. The class given is biochemical. The procedure, abridged:
as §1

c-Kit, sequence (P10721 26-976): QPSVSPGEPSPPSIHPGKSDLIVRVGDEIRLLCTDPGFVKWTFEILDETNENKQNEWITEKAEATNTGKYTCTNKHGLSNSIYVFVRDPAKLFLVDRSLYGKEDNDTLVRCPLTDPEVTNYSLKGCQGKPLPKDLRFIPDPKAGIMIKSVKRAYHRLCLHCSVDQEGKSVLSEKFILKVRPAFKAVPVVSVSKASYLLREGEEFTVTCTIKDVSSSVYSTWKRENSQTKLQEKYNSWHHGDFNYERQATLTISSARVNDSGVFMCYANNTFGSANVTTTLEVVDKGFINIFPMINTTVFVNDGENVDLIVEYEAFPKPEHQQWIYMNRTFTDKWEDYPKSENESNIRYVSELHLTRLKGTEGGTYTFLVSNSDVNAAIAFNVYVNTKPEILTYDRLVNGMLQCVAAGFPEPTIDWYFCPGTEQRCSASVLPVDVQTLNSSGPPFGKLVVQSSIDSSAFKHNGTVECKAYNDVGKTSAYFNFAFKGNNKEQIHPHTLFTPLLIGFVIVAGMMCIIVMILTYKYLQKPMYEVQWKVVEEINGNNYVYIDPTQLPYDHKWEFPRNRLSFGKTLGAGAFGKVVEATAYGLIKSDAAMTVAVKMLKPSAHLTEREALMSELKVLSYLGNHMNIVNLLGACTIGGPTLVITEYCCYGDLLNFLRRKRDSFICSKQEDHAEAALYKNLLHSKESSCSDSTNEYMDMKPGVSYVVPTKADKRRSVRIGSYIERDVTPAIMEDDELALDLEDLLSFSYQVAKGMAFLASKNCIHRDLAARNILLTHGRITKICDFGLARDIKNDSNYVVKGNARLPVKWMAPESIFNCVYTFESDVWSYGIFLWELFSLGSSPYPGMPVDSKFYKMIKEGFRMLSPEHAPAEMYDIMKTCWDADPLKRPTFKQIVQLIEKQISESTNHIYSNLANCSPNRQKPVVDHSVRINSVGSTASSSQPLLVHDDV
PDGFRβ, sequence (P09619 33-1106): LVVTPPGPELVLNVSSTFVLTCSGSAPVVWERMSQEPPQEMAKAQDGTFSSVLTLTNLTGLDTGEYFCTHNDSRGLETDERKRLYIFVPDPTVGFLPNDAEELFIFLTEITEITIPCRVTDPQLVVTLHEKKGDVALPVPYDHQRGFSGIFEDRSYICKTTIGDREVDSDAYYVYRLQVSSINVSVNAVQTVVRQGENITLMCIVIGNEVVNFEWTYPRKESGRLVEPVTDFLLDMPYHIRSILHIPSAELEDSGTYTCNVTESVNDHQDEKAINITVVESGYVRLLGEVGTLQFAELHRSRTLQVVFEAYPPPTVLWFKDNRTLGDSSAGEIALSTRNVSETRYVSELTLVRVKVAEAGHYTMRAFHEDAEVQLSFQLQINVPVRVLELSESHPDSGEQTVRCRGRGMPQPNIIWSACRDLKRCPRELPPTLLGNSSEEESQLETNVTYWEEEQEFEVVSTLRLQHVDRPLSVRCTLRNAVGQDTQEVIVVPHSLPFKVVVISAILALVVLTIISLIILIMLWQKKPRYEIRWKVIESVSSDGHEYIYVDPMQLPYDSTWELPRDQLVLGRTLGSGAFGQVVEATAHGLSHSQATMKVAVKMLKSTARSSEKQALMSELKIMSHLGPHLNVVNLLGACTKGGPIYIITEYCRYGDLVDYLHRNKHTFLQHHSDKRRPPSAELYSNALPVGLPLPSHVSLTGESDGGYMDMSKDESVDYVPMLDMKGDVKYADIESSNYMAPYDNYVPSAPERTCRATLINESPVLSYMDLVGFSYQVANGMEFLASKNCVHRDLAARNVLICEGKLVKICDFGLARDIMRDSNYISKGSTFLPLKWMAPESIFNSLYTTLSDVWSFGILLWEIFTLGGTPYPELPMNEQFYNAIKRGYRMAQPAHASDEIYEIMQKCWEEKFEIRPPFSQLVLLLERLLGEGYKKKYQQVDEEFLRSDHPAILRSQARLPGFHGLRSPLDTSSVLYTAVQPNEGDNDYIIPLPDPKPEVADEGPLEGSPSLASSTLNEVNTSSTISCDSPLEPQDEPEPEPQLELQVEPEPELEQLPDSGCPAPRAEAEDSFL
PDGFRα, sequence (P16234 24-1089): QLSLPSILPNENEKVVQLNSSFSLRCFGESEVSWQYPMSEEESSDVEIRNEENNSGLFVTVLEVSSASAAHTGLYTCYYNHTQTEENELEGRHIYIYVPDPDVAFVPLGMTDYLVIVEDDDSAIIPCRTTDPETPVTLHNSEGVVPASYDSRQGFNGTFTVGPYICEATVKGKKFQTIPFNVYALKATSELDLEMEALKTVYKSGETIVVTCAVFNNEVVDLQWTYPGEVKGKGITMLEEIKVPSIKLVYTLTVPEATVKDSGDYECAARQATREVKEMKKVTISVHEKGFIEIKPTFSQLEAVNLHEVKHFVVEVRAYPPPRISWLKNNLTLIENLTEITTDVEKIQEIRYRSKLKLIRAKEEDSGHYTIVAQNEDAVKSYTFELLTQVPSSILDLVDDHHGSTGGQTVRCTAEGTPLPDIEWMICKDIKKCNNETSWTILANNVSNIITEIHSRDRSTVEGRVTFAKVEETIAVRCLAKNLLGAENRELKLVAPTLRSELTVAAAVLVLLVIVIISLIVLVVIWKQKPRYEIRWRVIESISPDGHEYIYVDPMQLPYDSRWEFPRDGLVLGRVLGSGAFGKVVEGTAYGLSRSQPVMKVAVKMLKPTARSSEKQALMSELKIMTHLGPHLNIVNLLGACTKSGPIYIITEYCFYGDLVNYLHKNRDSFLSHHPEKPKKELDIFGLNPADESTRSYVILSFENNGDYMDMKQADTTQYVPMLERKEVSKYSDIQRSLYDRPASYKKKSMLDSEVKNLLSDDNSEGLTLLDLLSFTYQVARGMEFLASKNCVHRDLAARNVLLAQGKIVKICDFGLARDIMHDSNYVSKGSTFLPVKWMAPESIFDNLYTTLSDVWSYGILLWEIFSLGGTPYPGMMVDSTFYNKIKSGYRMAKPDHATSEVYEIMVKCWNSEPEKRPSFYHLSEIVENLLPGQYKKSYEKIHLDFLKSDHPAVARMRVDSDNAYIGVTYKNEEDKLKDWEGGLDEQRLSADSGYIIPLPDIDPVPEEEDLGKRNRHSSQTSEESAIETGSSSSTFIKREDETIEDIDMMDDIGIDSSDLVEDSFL
CSF1R, sequence (P07333 20-972): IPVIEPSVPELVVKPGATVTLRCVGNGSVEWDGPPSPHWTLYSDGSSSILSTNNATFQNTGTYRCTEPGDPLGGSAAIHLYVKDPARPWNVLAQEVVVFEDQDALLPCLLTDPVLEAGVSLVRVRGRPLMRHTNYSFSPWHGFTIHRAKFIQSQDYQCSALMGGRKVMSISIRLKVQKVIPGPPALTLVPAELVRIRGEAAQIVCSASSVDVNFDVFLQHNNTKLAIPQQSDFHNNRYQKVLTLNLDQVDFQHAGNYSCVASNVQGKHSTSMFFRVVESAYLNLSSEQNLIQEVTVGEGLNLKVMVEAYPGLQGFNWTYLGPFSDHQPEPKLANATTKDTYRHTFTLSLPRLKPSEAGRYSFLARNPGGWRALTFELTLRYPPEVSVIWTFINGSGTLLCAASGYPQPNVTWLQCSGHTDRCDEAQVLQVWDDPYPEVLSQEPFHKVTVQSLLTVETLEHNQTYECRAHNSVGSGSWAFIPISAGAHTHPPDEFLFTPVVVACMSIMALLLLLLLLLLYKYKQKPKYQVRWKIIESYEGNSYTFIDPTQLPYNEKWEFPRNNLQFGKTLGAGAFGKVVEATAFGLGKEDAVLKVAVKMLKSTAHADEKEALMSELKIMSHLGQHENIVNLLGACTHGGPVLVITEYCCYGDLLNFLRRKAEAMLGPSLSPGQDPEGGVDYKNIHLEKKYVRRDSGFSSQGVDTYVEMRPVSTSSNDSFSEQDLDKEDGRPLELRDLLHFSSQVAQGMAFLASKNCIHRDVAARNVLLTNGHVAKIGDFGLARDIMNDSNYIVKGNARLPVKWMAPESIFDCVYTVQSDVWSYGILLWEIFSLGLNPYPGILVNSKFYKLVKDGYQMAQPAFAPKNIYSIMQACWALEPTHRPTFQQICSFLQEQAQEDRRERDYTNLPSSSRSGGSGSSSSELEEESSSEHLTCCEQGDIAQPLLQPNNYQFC

On to `Cc1ncc(C(=O)Nc2cc(C(=O)Nc3ccnc(C(F)(F)F)c3)c(F)cc2C)s1` [Example 25, N-[4-Fluoro-2-methyl-5-[[2-(trifluoromethyl)pyridin-4-yl]carbamoyl]phenyl]-2-methyl-1,3-thiazole-5-carboxamide], for which the IC50 – broadly, the point on the concentration scale where inhibition reaches its midpoint – on PDGFRα was greater than 1000 nM; against PDGFRβ it was 100 to 1000 nM; on CSF1R, greater than 1000 nM; in experiment [1] it was less than 100 nM; against c-Kit it was less than 100 nM.

Turning to `Cc1ncc(C(=O)Nc2cc(C(=O)Nc3cnc(OC4CC(F)(F)C4)cn3)c(F)cc2C)s1` [Example 32, N-[5-[[5-(3,3-difluorocyclobutyl)oxypyrazin-2-yl]carbamoyl]-4-fluoro-2-methylphenyl]-2-methyl-1,3-thiazole-5-carboxamide], the IC50 on PDGFRα was greater than 1000 nM; against PDGFRβ it was greater than 1000 nM; at CSF1R, greater than 1000 nM; in experiment [1] it was less than 100 nM; on c-Kit it was less than 100 nM.

On to `Cc1ncc(C(=O)Nc2cc(C(=O)Nc3cncc(C(F)(F)F)n3)c(F)cc2C)s1` [Example 33, N-[4-fluoro-2-methyl-5-[[6-(trifluoromethyl)pyrazin-2-yl]carbamoyl]phenyl]-2-methyl-1,3-thiazole-5-carboxamide], for which the IC50 was greater than 1000 nM on CSF1R, 100 to 1000 nM in experiment [1] and less than 100 nM at c-Kit.

For the compound `Cc1ncc(C(=O)Nc2cc(C(=O)Nc3cncc(CC4CC4)n3)c(F)cc2C)s1` [Example 34, N-[5-[[6-(cyclopropylmethyl)pyrazin-2-yl]carbamoyl]-4-fluoro-2-methylphenyl]-2-methyl-1,3-thiazole-5-carboxamide], the values for the IC50 (at CSF1R; in experiment [1]; at c-Kit) were greater than 1000 nM, less than 100 nM and less than 100 nM, respectively.

As to `Cc1ncc(C(=O)Nc2cc(C(=O)Nc3ccc(OCC(F)F)cn3)c(F)cc2C)s1` [Example 36, N-[5-[[5-(2,2-difluoroethoxy)pyridin-2-yl]carbamoyl]-4-fluoro-2-methylphenyl]-2-methyl-1,3-thiazole-5-carboxamide], the IC50 against PDGFRα was greater than 1000 nM; on PDGFRβ it was greater than 1000 nM; against CSF1R it was greater than 1000 nM; in experiment [1], less than 100 nM; against c-Kit it was less than 100 nM.

`Cc1ncc(C(=O)Nc2cc(C(=O)Nc3ccc(OC(F)(F)F)cn3)c(F)cc2C)s1` [Example 39, N-[4-fluoro-2-methyl-5-[[5-(trifluoromethoxy)pyridin-2-yl]carbamoyl]phenyl]-2-methyl-1,3-thiazole-5-carboxamide]: the IC50 is greater than 1000 nM against PDGFRα; greater than 1000 nM against PDGFRβ; greater than 1000 nM at CSF1R; less than 100 nM in experiment [1]; less than 100 nM against c-Kit.

Take `Cc1ncc(C(=O)Nc2cc(C(=O)Nc3cncc(C4CC4)c3)c(F)cc2C)s1` [Example 53, N-[5-[(5-cyclopropylpyridin-3-yl)carbamoyl]-4-fluoro-2-methylphenyl]-2-methyl-1,3-thiazole-5-carboxamide]: the IC50 is greater than 1000 nM against CSF1R, less than 100 nM in experiment [1] and less than 100 nM on c-Kit.

For the compound `Cc1ncc(C(=O)Nc2cc(C(=O)Nc3cccc(C(F)(F)F)n3)c(F)cc2C)s1` [Example 55, N-[4-fluoro-2-methyl-5-[[6-(trifluoromethyl)pyridin-2-yl]carbamoyl]phenyl]-2-methyl-1,3-thiazole-5-carboxamide], the IC50 on CSF1R was greater than 1000 nM; in experiment [1] it was less than 100 nM; against c-Kit, less than 100 nM.

As to `Cc1ncc(C(=O)Nc2cc(C(=O)Nc3cnc(C(F)F)cn3)c(F)cc2C)s1` [Example 56, N-[5-[[5-(difluoromethyl)pyrazin-2-yl]carbamoyl]-4-fluoro-2-methylphenyl]-2-methyl-1,3-thiazole-5-carboxamide], the IC50 is greater than 1000 nM against CSF1R, 100 to 1000 nM in experiment [1] and 100 to 1000 nM at c-Kit.

Take `Cc1ncc(C(=O)Nc2cc(C(=O)Nc3cncc(C(F)F)c3)c(F)cc2C)s1` [Example 76, N-[5-[[5-(difluoromethyl)pyridin-3-yl]carbamoyl]-4-fluoro-2-methylphenyl]-2-methyl-1,3-thiazole-5-carboxamide]: the IC50 is greater than 1000 nM on CSF1R, less than 100 nM in experiment [1] and less than 100 nM against c-Kit.

Take `Cc1ncc(C(=O)Nc2cc(C(=O)Nc3cncc(C(F)(F)F)c3)c(F)cc2C)s1` [Example 77, N-[4-fluoro-2-methyl-5-[[5-(trifluoromethyl)pyridin-3-yl]carbamoyl]phenyl]-2-methyl-1,3-thiazole-5-carboxamide]: the figures for the IC50 (against CSF1R; in experiment [1]; against c-Kit) were greater than 1000 nM, less than 100 nM and less than 100 nM, respectively.

`Cc1ncc(C(=O)Nc2cc(C(=O)Nc3cncc(CC(F)(F)F)c3)c(F)cc2C)s1` [Example 81, N-[4-fluoro-2-methyl-5-[[5-(2,2,2-trifluoroethyl)pyridin-3-yl]carbamoyl]phenyl]-2-methyl-1,3-thiazole-5-carboxamide]: the IC50 on CSF1R was greater than 1000 nM; in experiment [1], less than 100 nM; on c-Kit, less than 100 nM.

For the compound `Cc1ncc(C(=O)Nc2cc(C(=O)Nc3ccc(CC(F)(F)F)nc3)c(F)cc2C)s1` [Example 98, N-[4-fluoro-2-methyl-5-[[6-(2,2,2-trifluoroethyl)pyridin-3-yl]carbamoyl]phenyl]-2-methyl-1,3-thiazole-5-carboxamide], the IC50 was greater than 1000 nM at CSF1R, less than 100 nM in experiment [1] and less than 100 nM at c-Kit.

As for `Nc1ncc(C(=O)Nc2cc(C(=O)Nc3ccc(CC(F)(F)F)cn3)c(F)cc2F)s1` [Example 221, 2-Amino-N-[2,4-difluoro-5-[[5-(2,2,2-trifluoroethyl)pyridin-2-yl]carbamoyl]phenyl]-1,3-thiazole-5-carboxamide], the IC50 was 100 to 1000 nM at CSF1R, less than 100 nM in experiment [1] and less than 100 nM against c-Kit.

Regarding `Cc1cc(F)c(C(=O)Nc2cncc(C(F)F)c2)cc1NC(=O)c1cnc(N)s1` [Example 246, 2-Amino-N-[5-[[5-(difluoromethyl)pyridin-3-yl]carbamoyl]-4-fluoro-2-methylphenyl]-1,3-thiazole-5-carboxamide], the IC50 (on CSF1R; in experiment [1]; at c-Kit) was less than 100 nM each time.

Consider `Cc1cc(F)c(C(=O)Nc2cncc(C(F)(F)F)c2)cc1NC(=O)c1cnc(N)s1` [Example 249, 2-Amino-N-[4-fluoro-2-methyl-5-[[5-(trifluoromethyl)pyridin-3-yl]carbamoyl]phenyl]-1,3-thiazole-5-carboxamide], for which the IC50 (against CSF1R; in experiment [1]; at c-Kit) was less than 100 nM throughout.

`Cc1cc(F)c(C(=O)Nc2cccnc2C)cc1NC(=O)c1cnc(N)s1` [Example 250, 2-Amino-N-[4-fluoro-2-methyl-5-[(2-methylpyridin-3-yl)carbamoyl]phenyl]-1,3-thiazole-5-carboxamide]: the IC50 at CSF1R is greater than 1000 nM; in experiment [1] it was 100 to 1000 nM; on c-Kit, 100 to 1000 nM.

The values above are taken from patent publication US20250145606A1 (Arcus Biosciences, Inc., priority 2023, published 2025).
